Test results: patent US12371428B2 (Exelixis, Inc., priority 2019, dated 2025)
Where a name gives a salt, the structure may show the parent alone.

Experiments:
[1] = biological target: Human MET (residues 956-1390) (Homo sapiens (Human), UniProt P08581); assay: Human Met kinase assay, HTRF KinEase (Example D-2); type: biochemical; details: protocol of Example D-2 (other compounds); read-out: c-Met IC50
Method in brief: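 MET kinase domain (956-1390), 0.1 ng/well, in buffer with 5 mM MgCl2, 1 mM DTT and 1 mM MnCl2, phosphorylated a biotinylated peptide at ATP Km for 40 min at RT; 10 concentrations, 3% DMSO final. EDTA-stopped HTRF read after 60 min; IC50 from a 4-parameter logistic fit.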

[2] = biological target: Mer (phospho-Mer, MERTK-transfected 293A cells) (Homo sapiens (Human), UniProt Q12866); assay: Mer autophosphorylation ELISA in transient transfected 293A cells (Example H); type: cell-based; details: cellular activity; Mer autophosphorylation ELISA in transient transfected 293A cells
Mer (phospho-Mer, MERTK-transfected 293A cells), sequence (Q12866 21-999): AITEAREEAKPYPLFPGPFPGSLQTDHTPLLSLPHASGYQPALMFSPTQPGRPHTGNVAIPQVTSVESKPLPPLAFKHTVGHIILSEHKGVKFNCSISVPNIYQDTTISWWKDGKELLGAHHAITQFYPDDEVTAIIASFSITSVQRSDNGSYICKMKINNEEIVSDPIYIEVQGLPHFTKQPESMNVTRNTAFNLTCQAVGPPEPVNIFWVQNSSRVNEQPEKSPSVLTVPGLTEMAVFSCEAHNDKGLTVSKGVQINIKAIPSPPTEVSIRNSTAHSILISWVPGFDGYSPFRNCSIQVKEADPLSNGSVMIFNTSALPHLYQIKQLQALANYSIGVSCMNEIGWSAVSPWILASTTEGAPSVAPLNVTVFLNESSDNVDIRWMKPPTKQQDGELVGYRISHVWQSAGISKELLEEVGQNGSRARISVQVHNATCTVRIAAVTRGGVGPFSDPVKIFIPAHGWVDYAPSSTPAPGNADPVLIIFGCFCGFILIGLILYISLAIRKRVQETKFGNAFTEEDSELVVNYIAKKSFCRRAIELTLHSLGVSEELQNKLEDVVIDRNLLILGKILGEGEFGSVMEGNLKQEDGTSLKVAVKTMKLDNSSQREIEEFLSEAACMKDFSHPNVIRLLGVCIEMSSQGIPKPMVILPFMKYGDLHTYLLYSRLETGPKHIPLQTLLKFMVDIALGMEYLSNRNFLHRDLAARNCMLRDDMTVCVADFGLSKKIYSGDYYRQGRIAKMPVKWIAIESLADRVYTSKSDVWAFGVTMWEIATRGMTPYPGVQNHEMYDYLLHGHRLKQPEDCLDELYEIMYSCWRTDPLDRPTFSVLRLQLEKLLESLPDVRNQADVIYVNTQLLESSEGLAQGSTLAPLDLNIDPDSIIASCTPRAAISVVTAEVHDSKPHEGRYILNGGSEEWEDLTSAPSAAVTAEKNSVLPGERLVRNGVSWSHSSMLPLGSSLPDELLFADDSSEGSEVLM
Method in brief: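 293A cells transiently transfected with human MERTK were treated 1 h in serum-free medium with an 8-point compound dilution (0.3% DMSO final). Lysates were assayed by phospho-Mer sandwich ELISA against a phospho-Mer standard; IC50 came from a 4-parameter logistic fit, normalised to DMSO (100%) and reference-inhibitor (0%) controls.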

[3] = biological target: KDR (phospho-KDR, VEGF165-stimulated HUVEC cells) (Homo sapiens (Human), UniProt P35968); assay: KDR autophosphorylation ELISA in HUVEC cells (Example G); type: cell-based; details: cellular activity; KDR autophosphorylation ELISA in HUVEC cells
KDR (phospho-KDR, VEGF165-stimulated HUVEC cells), sequence (P35968 20-1356): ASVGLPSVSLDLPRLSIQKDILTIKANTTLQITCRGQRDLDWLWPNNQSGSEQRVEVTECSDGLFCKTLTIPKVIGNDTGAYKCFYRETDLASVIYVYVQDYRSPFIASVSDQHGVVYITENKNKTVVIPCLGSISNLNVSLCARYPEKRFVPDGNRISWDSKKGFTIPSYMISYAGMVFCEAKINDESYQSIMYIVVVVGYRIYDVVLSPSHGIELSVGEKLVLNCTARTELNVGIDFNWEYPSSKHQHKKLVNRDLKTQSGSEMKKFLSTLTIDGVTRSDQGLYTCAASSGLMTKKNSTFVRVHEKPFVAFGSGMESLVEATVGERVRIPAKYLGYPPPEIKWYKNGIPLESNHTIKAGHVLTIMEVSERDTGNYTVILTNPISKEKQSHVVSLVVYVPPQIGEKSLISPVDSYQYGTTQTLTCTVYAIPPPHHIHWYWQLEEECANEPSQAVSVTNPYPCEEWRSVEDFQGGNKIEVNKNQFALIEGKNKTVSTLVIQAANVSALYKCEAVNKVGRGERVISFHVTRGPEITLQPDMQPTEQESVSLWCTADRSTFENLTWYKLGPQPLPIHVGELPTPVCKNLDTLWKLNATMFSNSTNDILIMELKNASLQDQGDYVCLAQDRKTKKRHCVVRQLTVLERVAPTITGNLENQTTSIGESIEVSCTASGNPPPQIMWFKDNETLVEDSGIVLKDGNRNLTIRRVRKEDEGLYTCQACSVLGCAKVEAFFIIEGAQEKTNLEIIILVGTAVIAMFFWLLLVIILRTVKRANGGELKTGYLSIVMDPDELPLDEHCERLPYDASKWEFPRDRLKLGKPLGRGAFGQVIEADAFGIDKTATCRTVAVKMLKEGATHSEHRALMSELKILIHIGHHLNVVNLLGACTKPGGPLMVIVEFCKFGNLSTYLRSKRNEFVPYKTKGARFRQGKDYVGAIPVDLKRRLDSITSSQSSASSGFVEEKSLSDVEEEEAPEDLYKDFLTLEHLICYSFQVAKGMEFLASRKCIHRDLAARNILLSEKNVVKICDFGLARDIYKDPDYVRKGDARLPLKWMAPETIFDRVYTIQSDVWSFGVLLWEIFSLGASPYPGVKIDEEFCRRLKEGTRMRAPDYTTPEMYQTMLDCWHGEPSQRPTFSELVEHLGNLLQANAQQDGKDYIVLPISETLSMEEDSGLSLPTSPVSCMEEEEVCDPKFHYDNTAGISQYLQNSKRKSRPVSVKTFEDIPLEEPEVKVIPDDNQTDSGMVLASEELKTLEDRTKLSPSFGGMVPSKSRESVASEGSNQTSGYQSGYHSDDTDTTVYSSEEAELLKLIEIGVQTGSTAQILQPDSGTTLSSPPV
Method in brief: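 HUVECs were serum-starved 24 h, given compound as an 8-point dilution series (0.3% DMSO final) for 1 h, then stimulated with 100 ng/mL VEGF165 for 5 min. Lysate phospho-KDR was quantified by sandwich ELISA against a phospho-KDR standard, and IC50s came from a 4-parameter logistic fit.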

[4] = biological target: Human KDR (residues 790-1356) (Homo sapiens (Human), UniProt P35968); assay: Human KDR kinase assay, HTRF KinEase (Example B-2); type: biochemical; details: protocol of Example B-2 (other compounds)
Human KDR (residues 790-1356), sequence (P35968 790-1356): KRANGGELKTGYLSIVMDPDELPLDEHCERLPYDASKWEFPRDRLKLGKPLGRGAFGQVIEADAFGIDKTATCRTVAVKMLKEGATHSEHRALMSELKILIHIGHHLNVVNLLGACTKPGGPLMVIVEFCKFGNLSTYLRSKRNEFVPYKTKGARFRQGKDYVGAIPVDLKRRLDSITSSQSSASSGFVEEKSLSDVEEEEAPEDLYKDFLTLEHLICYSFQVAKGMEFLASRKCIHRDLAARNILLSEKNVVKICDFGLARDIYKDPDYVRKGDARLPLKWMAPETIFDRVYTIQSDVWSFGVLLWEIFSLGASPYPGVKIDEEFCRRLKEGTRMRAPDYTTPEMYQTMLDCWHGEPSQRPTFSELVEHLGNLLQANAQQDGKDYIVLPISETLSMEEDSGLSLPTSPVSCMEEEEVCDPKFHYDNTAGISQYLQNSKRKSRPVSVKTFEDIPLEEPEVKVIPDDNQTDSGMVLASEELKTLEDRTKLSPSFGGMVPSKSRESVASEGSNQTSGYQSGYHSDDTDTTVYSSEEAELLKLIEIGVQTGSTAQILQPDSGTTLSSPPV
Method in brief: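 Human KDR residues 790-1356 (0.1 ng/well) in buffer with 5 mM MgCl2, 1 mM MnCl2, 1 mM DTT, biotinylated peptide substrate, ATP at Km (4.0 μM), 3% DMSO, 10 compound concentrations; 40 min, room temperature. EDTA stop, streptavidin-XL665/Eu-TK antibody HTRF read 665/620 nm; 4-parameter IC50.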

Human MET (residues 956-1390), sequence (P08581 956-1390): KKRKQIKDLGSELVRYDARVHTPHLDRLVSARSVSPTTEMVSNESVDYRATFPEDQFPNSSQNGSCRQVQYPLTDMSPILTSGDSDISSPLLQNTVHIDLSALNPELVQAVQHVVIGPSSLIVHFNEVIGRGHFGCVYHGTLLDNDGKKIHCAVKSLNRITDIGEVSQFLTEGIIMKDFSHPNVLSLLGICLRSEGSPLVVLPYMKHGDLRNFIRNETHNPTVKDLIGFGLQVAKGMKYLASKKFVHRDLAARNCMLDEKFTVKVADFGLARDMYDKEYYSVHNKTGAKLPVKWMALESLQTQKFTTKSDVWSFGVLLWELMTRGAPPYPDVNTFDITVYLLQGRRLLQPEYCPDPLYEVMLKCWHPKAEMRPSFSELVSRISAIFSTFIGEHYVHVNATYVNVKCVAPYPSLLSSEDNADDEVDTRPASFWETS

Row | SMILES | IC50 [1] [nM] | IC50 [2] [nM] | IC50 [3] [nM] | IC50 [4] [nM]
1 | COc1cc2nccc(Oc3ccc(NC(=O)c4cn(C)c(CO)c(-c5ccc(F)cc5)c4=O)cc3)c2nc1OC [Compound 221, N-[4-[(6,7-Dimethoxy-1,5-naphthyridin-4-yl)oxy]phenyl]-5-(4-fluorophenyl)-6-(hydroxymethyl)-1-methyl-4-oxopyridine-3-carboxamide] | < 100 | < 100 | 100 to 300 | 100 to 300
2 | COc1ccc2nccc(Oc3ccc(NC(=O)c4c(C)nc(C)n(-c5ccc(F)cc5)c4=O)cc3F)c2n1 [Compound 233, N-[3-Fluoro-4-[(6-methoxy-1,5-naphthyridin-4-yl)oxy]phenyl]-1-(4-fluorophenyl)-2,4-dimethyl-6-oxopyrimidine-5-carboxamide] | 100 to 300 | < 100 | < 100 | < 100
3 | COCc1nc(C)c(-c2ccc(F)cc2)c(O)c1C(=O)Nc1ccc(Oc2ccnc3cc(OC)cnc23)c(F)c1 [Compound 186, N-[3-Fluoro-4-[(7-methoxy-1,5-naphthyridin-4-yl)oxy]phenyl]-5-(4-fluorophenyl)-4-hydroxy-2-(methoxymethyl)-6-methylpyridine-3-carboxamide] | < 100 | < 100 | < 100 | < 100
4 | CCn1cc(-c2ccc(F)cc2)c(=O)c(C(=O)Nc2ccc(Oc3ccnc4cc(OC)cnc34)c(F)c2)c1C [Compound 240, 1-Ethyl-N-[3-fluoro-4-[(7-methoxy-1,5-naphthyridin-4-yl)oxy]phenyl]-5-(4-fluorophenyl)-2-methyl-4-oxopyridine-3-carboxamide] | < 100 | < 100 | > 300 | > 300
5 | COc1cnc2c(Oc3ccc(NC(=O)c4c(C)nc(C)n(-c5ccc(F)cc5)c4=O)cc3)ccnc2c1 [Compound 258, 1-(4-Fluorophenyl)-N-[4-[(7-methoxy-1,5-naphthyridin-4-yl)oxy]phenyl]-2,4-dimethyl-6-oxopyrimidine-5-carboxamide] | < 100 | < 100 | 100 to 300 | < 100
6 | COc1ccc2nccc(Oc3ccc(NC(=O)c4cn(C)c(C)c(-c5ccc(F)cc5C)c4=O)cc3F)c2n1 [Compound 183, N-[3-Fluoro-4-[(6-methoxy-1,5-naphthyridin-4-yl)oxy]phenyl]-5-(4-fluoro-2-methylphenyl)-1,6-dimethyl-4-oxopyridine-3-carboxamide] | < 100 | < 100 | > 300 | > 300
7 | CCc1nc(C)c(-c2ccc(F)cc2)c(O)c1C(=O)Nc1ccc(Oc2ccnc3cc(OC)c(OC)nc23)c(F)c1 [Compound 179, N-[4-[(6,7-Dimethoxy-1,5-naphthyridin-4-yl)oxy]-3-fluorophenyl]-2-ethyl-5-(4-fluorophenyl)-4-hydroxy-6-methylpyridine-3-carboxamide] | < 100 | < 100 | < 100 | < 100
8 | COc1cnc2c(Oc3ccc(NC(=O)c4cnc(CO)c(-c5ccc(F)cc5)c4O)cc3)ccnc2c1 [Compound 218, 5-(4-Fluorophenyl)-4-hydroxy-6-(hydroxymethyl)-N-[4-[(7-methoxy-1,5-naphthyridin-4-yl)oxy]phenyl]pyridine-3-carboxamide] | < 100 | < 100 | < 100 | 100 to 300
9 | COc1cnc2c(Oc3ccc(NC(=O)c4nn(C)c(C)c(-c5ccc(F)cc5)c4=O)cc3F)ccnc2c1 [Compound 250, N-[3-Fluoro-4-[(7-methoxy-1,5-naphthyridin-4-yl)oxy]phenyl]-5-(4-fluorophenyl)-1,6-dimethyl-4-oxopyridazine-3-carboxamide] | < 100 | < 100 | > 300 | > 300
10 | COc1ccc2nccc(Oc3ccc(NC(=O)c4cnc(CO)c(-c5ccc(F)cc5)c4O)cc3F)c2n1 [Compound 231, N-[3-Fluoro-4-[(6-methoxy-1,5-naphthyridin-4-yl)oxy]phenyl]-5-(4-fluorophenyl)-4-hydroxy-6-(hydroxymethyl)pyridine-3-carboxamide] | < 100 | < 100 | < 100 | 100 to 300
11 | COc1ccc2nccc(Oc3ccc(NC(=O)c4cn(C)c(CO)c(-c5ccc(F)cc5)c4=O)cc3F)c2n1 [Compound 224, N-[3-Fluoro-4-[(6-methoxy-1,5-naphthyridin-4-yl)oxy]phenyl]-5-(4-fluorophenyl)-6-(hydroxymethyl)-1-methyl-4-oxopyridine-3-carboxamide] | < 100 | < 100 | > 300 | > 300
12 | COc1cnc2c(Oc3ccc(NC(=O)c4n[nH]c(C)c(-c5ccc(F)cc5C)c4=O)cc3F)ccnc2c1 [Compound 249A, N-[3-Fluoro-4-[(7-methoxy-1,5-naphthyridin-4-yl)oxy]phenyl]-5-(4-fluoro-2-methylphenyl)-6-methyl-4-oxo-1H-pyridazine-3-carboxamide] | < 100 | < 100 | 100 to 300 | > 300
13 | COc1cc2nccc(Oc3ccc(NC(=O)c4ccc(C)n(-c5ccc(F)cc5)c4=O)cc3)c2nc1OC [Compound 229, N-[4-[(6,7-Dimethoxy-1,5-naphthyridin-4-yl)oxy]phenyl]-1-(4-fluorophenyl)-6-methyl-2-oxopyridine-3-carboxamide] | < 100 | < 100 | < 100 | < 100
14 | COc1cnc2c(Oc3ccc(NC(=O)c4c(C)nc(C)n(-c5ccc(F)cc5)c4=O)cc3F)ccnc2c1 [Compound 257, N-[3-Fluoro-4-[(7-methoxy-1,5-naphthyridin-4-yl)oxy]phenyl]-1-(4-fluorophenyl)-2,4-dimethyl-6-oxopyrimidine-5-carboxamide] | < 100 | < 100 | < 100 | < 100
15 | COc1cc2nccc(Oc3ccc(NC(=O)c4n[nH]c(C)c(-c5ccc(F)cc5C)c4=O)cc3)c2nc1OC [Compound 247, N-[4-[(6,7-Dimethoxy-1,5-naphthyridin-4-yl)oxy]phenyl]-5-(4-fluoro-2-methylphenyl)-6-methyl-4-oxo-1H-pyridazine-3-carboxamide] | < 100 | < 100 | < 100 | < 100
16 | CCc1nc(C)c(-c2ccc(F)cc2C)c(O)c1C(=O)Nc1ccc(Oc2ccnc3cc(OC)cnc23)cc1 [Compound 205, 2-Ethyl-5-(4-fluoro-2-methylphenyl)-4-hydroxy-N-[4-[(7-methoxy-1,5-naphthyridin-4-yl)oxy]phenyl]-6-methylpyridine-3-carboxamide] | < 100 | < 100 | < 100 | > 300
17 | COCc1nc(C)c(-c2ccc(F)cc2C)c(O)c1C(=O)Nc1ccc(Oc2ccnc3cc(OC)c(OC)nc23)cc1 [Compound 192, N-[4-[(6,7-Dimethoxy-1,5-naphthyridin-4-yl)oxy]phenyl]-5-(4-fluoro-2-methylphenyl)-4-hydroxy-2-(methoxymethyl)-6-methylpyridine-3-carboxamide] | < 100 | < 100 | < 100 | < 100
18 | COc1cc2nccc(Oc3ccc(NC(=O)c4cn(C)c(C)c(-c5ccccc5)c4=O)cc3F)c2nc1OC [Compound 36, N-[4-[(6,7-Dimethoxy-1,5-naphthyridin-4-yl)oxy]-3-fluorophenyl]-1,6-dimethyl-4-oxo-5-phenylpyridine-3-carboxamide hydrochloride] | < 100 | < 100 | 100 to 300 | < 100
19 | COCCOc1nc2c(Oc3ccc(NC(=O)c4cn(C)c(C)c(-c5ccc(F)cc5C)c4=O)cc3F)ccnc2cc1OC [Compound 200, N-[3-Fluoro-4-[[7-methoxy-6-(2-methoxyethoxy)-1,5-naphthyridin-4-yl]oxy]phenyl]-5-(4-fluoro-2-methylphenyl)-1,6-dimethyl-4-oxopyridine-3-carboxamide] | < 100 | < 100 | < 100 | > 300
20 | COc1cnc2c(Oc3ccc(NC(=O)c4n[nH]c(C)c(-c5ccc(F)cc5C)c4=O)cc3)ccnc2c1 [Compound 248, 5-(4-Fluoro-2-methylphenyl)-N-[4-[(7-methoxy-1,5-naphthyridin-4-yl)oxy]phenyl]-6-methyl-4-oxo-1H-pyridazine-3-carboxamide] | < 100 | < 100 | > 300 | > 300
21 | COc1cnc2c(Oc3ccc(NC(=O)c4c(C)ncn(-c5ccc(F)cc5)c4=O)cc3F)ccnc2c1 [Compound 256, N-[3-Fluoro-4-[(7-methoxy-1,5-naphthyridin-4-yl)oxy]phenyl]-1-(4-fluorophenyl)-4-methyl-6-oxopyrimidine-5-carboxamide] | < 100 | < 100 | > 300 | 100 to 300
